In patent US20070004735A1, “Method for inhibiting the replication of herpes viruses” (priority 2003, published 2007):

Legend:
wild-type HCMV AD169 = experiment: Susceptibility (IC50) of HCMV AD169 wild-type; type: cell-based, Human cytomegalovirus; conditions: Human betaherpesvirus 5, NHDF cells, read-out: IC 50, Wild-type
Procedure: (§1) The test compounds are employed as 50 millimolar (mM) solutions in dimethyl sulfoxide (DMSO). Ganciclovir®, Foscarnet® and Cidofovir® are used as reference compounds. After addition of in each case 2 μl of the 50, 5, 0.5 and 0.05 mM DMSO stock solutions to 98 μl portions of cell culture medium in row 2 A-H for duplicate determinations, 1:2 dilutions are carried out with 50 μl portions of medium up to row 11 of the 96-well plate. The wells in rows 1 and 12 each contain 50 μl of medium. 150 μl of a suspension of 1×10^4 cells (human prepuce fibroblasts [NHDF]) are then pipetted into each of the wells (row 1=cell control) and, in rows 2-12, a mixture of HCMV-infected and uninfected NHDF cells (M.O.I.=0.001-0.002), i.e. 1-2 infected cells per 1000 uninfected cells. Row 12 (without substance) serves as virus control. The final test concentrations are 250-0.0005 μM. The plates are incubated at 37° C./5% CO2 for 6 days, i.e. until all the cells are infected in the virus controls (100% cytopathogenic effect [CPE]). The wells are then fixed and stained by adding a mixture of formalin and Giemsa's dye (30 minutes), washed with double-distilled water and dried in a drying oven at 50° C. The plates are then assessed visually using an overhead microscope (plaque multiplier from Technomara).
(§2) For this purpose, NHDF cells are seeded in tissue culture vessels. 5×10^3 cells per well are seeded in 96-well plates and infected with cell-free HCMV AD169 with an moi of 0.03. The infections are cultivated under substance pressure which corresponds to 10 times the IC50 of the substance. Preferably, 30-100 96-well plates inoculated as described are made up. […] Finally, viral stocks are produced as described above and frozen. Serial ten-fold dilution of the virus-infected cells or of the cell culture supernatant of the virus-infected cells is followed by determination of the titer on 24-well plates of confluent NHDF cells after vital staining with neutral red. Finally, the susceptibility to various substances (IC50 determination) is determined as described above.
(§3) The HCMVAD169 mutants selected as described above are grown in vitro on human embryonic prepuce fibroblasts (NHDF cells) under substance pressure (10×IC50 HCMVAD169). After infection of the NHDF cells with a multiplicity of infection (M.O.I) of 0.01, the virus-infected cells are harvested 5-10 days later, and the total DNA is isolated from these cells with the aid of established standard methods (e.g. phenol extraction and ethanol precipitation). Qiagen Sequencing Services (Qiagen, Hilden) determined, after amplification of the viral UL86 gene by PCR, the DNA sequence, which was then transcribed into protein sequence. Compared with the initial strain HCMV AD169, the differences shown in table 2 were detectable in the protein sequence of the major capsid protein (UL86) in the resistant viruses. The IC50 values [μM] of various substances on these mutants compared with the initial strain are likewise indicated. (n.d.=not measured). […] Depending on the nature of the substance, certain mutations lead to various extents of resistance.

[1] = system: HCMV AD169 clone with mutation in UL86 R435C; experiment: Susceptibility (IC50) of resistant HCMV AD169 clone R435C; type: cell-based, Human cytomegalovirus; conditions: Human betaherpesvirus 5, read-out: IC 50, R435C
Procedure: as §1, §2, §3

[2] = system: HCMV AD169 clone with mutation in UL86 D441N; experiment: Susceptibility (IC50) of resistant HCMV AD169 clone D441N; type: cell-based, Human cytomegalovirus; conditions: Human betaherpesvirus 5, read-out: IC 50, D441N
Procedure: as §1, §2, §3

[3] = system: HCMV AD169 clone with mutation in UL86 D563N; experiment: Susceptibility (IC50) of resistant HCMV AD169 clone D563N; type: cell-based, Human cytomegalovirus; conditions: Human betaherpesvirus 5, read-out: IC 50, D563N
Procedure: as §1, §2, §3

[4] = system: HCMV AD169 clone with mutation in UL86 P586T; experiment: Susceptibility (IC50) of resistant HCMV AD169 clone P586T; type: cell-based, Human cytomegalovirus; conditions: Human betaherpesvirus 5, read-out: IC 50, P586T
Procedure: as §1, §2, §3

[5] = system: HCMV AD169 clone with mutation in UL86 V601M; experiment: Susceptibility (IC50) of resistant HCMV AD169 clone V601M; type: cell-based, Human cytomegalovirus; conditions: Human betaherpesvirus 5, read-out: IC 50, V601M
Procedure: as §1, §2, §3

[6] = system: HCMV AD169 clone with mutation in UL86 R682H; experiment: Susceptibility (IC50) of resistant HCMV AD169 clone R682H; type: cell-based, Human cytomegalovirus; conditions: Human betaherpesvirus 5, read-out: IC 50, R682H
Procedure: as §1, §2, §3

[7] = system: HCMV AD169 clone with mutation in UL86 P1189T; experiment: Susceptibility (IC50) of resistant HCMV AD169 clone P1189T; type: cell-based, Human cytomegalovirus; conditions: Human betaherpesvirus 5, read-out: IC 50, P1189T
Procedure: as §1, §2, §3

[8] = system: HCMV AD169 clone with mutation in UL86 A1226T; experiment: Susceptibility (IC50) of resistant HCMV AD169 clone A1226T; type: cell-based, Human cytomegalovirus; conditions: Human betaherpesvirus 5, read-out: IC 50, A1226T
Procedure: as §1, §2, §3

[9] = system: HCMV AD169 clone with mutation in UL86 E1320Q; experiment: Susceptibility (IC50) of resistant HCMV AD169 clone E1320Q; type: cell-based, Human cytomegalovirus; conditions: Human betaherpesvirus 5, read-out: IC 50, E1320Q
Procedure: as §1, §2, §3

[10] = system: HCMV AD169 clone with mutation in UL86 K1338N; experiment: Susceptibility (IC50) of resistant HCMV AD169 clone K1338N; type: cell-based, Human cytomegalovirus; conditions: Human betaherpesvirus 5, read-out: IC 50, K1338N
Procedure: as §1, §2, §3

| SMILES | IC50 (wild-type HCMV AD169) | IC50 [1] | IC50 [2] | IC50 [3] | IC50 [4] | IC50 [5] | IC50 [6] | IC50 [7] | IC50 [8] | IC50 [9] | IC50 [10] | melting point |
| --- | --- | --- | --- | --- | --- | --- | --- | --- | --- | --- | --- | --- |
| CC1(C)CC(=O)NN=C1c1cccc(NC(=O)Nc2ccc(F)cc2F)c1 [Example 1, N-(2,4-Difluorophenyl)-N′-[3-(4,4-dimethyl-6-oxo-1,4,5,6-tetrahydro-3-pyridazinyl)phenyl]urea] | 1 µM | 1.5 µM | 20 µM | > 125 µM | 4 µM | 20 µM | 20 µM | > 125 µM | > 125 µM | > 125 µM | > 125 µM | 213 °C |
| CC1(C)CC(=O)NN=C1c1cc(NC(=O)Nc2cc(F)ccc2F)ccc1O [Example 2, N-(2,5-Difluorophenyl)-N′-[3-(4,4-dimethyl-6-oxo-1,4,5,6-tetrahydro-3-pyridazinyl)-4-hydroxyphenyl]urea] | 0.4 µM | 0.5 µM | 1.5 µM | 6 µM | 2 µM | 3 µM | 3 µM | > 125 µM | > 125 µM | 13 µM | > 125 µM | – |
| CCCCC(=O)Nc1ccc(NC(=O)Nc2ccc(F)c(Cl)c2)cc1 [Example 4, N-[4-({[(3-Chloro-4-fluorophenyl)amino]carbonyl}amino)phenyl]pentanamide] | 0.08 µM | > 60 µM | 0.5 µM | 1 µM | 0.5 µM | 0.5 µM | 0.5 µM | 2 µM | 0.8 µM | 2 µM | > 60 µM | – |
